Reference: patent publication US12371428B2 (Exelixis, Inc., priority 2019, dated 2025)
pIC50: −log10 of the molar value.

Key:
[1] = molecular target: Mer (phospho-Mer, MERTK-transfected 293A cells) (Homo sapiens (Human), UniProt Q12866); experiment: Mer autophosphorylation ELISA in transient transfected 293A cells (Example H); assay type: cell-based; details: cellular activity; Mer autophosphorylation ELISA in transient transfected 293A cells
Summary of the method: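 IC50 from phospho-Mer ELISA of MERTK-transfected 293A cell lysates after 1 h treatment with serially diluted compound in serum-free medium.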

[2] = molecular target: Human KDR (residues 790-1356) (Homo sapiens (Human), UniProt P35968); experiment: Human KDR kinase assay, HTRF KinEase (Example B-2); assay type: biochemical; details: protocol of Example B-2 (other compounds)
Human KDR (residues 790-1356), sequence (P35968 790-1356): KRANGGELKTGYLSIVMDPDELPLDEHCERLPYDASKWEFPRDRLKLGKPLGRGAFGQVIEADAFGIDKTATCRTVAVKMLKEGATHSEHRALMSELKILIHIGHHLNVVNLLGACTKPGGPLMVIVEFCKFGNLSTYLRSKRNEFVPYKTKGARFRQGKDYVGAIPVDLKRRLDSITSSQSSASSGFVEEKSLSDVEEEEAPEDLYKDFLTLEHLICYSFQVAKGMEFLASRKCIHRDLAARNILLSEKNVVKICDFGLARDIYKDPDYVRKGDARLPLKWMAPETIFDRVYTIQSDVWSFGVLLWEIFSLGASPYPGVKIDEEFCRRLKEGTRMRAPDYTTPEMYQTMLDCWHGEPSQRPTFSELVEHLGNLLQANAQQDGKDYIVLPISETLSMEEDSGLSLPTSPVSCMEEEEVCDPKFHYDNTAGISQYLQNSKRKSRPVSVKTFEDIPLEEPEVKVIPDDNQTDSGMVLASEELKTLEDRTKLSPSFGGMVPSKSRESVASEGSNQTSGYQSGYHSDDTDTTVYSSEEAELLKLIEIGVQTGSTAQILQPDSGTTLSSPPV
Summary of the method: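 Ten compound concentrations (3% DMSO final) were pre-plated, then KDR (790-1356) with biotinylated peptide in Mg/Mn/DTT buffer was added; ATP at Km (4.0 μM) started a 40 min room-temperature reaction. Detection used Eu-TK antibody and SA-XL665 in EDTA buffer; activity normalized to DMSO and reference inhibitor, IC50 by logistic fit.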

[3] = molecular target: Human MET (residues 956-1390) (Homo sapiens (Human), UniProt P08581); experiment: Human Met kinase assay, HTRF KinEase (Example D-2); assay type: biochemical; details: protocol of Example D-2 (other compounds); read-out: c-Met IC50
Human MET (residues 956-1390), sequence (P08581 956-1390): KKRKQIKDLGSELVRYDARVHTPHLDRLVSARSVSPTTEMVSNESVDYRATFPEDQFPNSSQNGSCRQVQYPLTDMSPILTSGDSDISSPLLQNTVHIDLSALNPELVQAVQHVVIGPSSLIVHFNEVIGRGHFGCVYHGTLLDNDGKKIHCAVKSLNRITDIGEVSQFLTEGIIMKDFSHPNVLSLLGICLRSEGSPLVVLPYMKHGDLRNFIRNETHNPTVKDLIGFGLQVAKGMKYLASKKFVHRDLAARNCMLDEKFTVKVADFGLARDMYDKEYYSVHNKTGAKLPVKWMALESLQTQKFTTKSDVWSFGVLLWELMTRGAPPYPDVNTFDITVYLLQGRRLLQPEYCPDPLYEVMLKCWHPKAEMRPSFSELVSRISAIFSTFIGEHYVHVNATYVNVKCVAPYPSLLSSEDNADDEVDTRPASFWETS
Summary of the method: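 MET kinase domain (956-1390), 0.1 ng/well, in buffer with 5 mM MgCl2, 1 mM DTT and 1 mM MnCl2, phosphorylated a biotinylated peptide at ATP Km for 40 min at RT; 10 concentrations, 3% DMSO final. EDTA-stopped HTRF read after 60 min; IC50 from a 4-parameter logistic fit.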

[4] = molecular target: Human MER (residues 528-999) (Homo sapiens (Human), UniProt Q12866); experiment: Human Mer kinase assay, HTRF KinEase (Example C-2); assay type: biochemical; details: protocol of Example C-2 (other compounds)
Human MER (residues 528-999), sequence (Q12866 528-999): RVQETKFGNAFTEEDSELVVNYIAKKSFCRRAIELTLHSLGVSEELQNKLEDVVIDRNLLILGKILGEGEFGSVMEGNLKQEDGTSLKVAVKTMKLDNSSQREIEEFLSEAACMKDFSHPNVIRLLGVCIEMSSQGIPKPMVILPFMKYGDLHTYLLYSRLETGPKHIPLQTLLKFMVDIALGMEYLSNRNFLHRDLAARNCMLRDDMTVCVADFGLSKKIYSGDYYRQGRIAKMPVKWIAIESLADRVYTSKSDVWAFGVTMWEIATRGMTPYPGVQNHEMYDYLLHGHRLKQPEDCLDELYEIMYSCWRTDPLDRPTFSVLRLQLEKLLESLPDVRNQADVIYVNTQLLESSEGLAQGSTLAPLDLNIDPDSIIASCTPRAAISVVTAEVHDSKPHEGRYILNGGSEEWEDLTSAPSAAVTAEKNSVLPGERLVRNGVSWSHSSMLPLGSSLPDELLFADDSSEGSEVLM
Summary of the method: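 Recombinant MER 528-999 (1 ng/well) in buffer with 5 mM MgCl2 and 1 mM DTT was reacted with biotinylated peptide and ATP at Km (40 μM) for 60 min at room temperature. EDTA stop with SA-XL665 and Eu3+ TK antibody, then 665/620 nm HTRF read; IC50 from 4-parameter fit.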

Mer (phospho-Mer, MERTK-transfected 293A cells), sequence (Q12866 21-999): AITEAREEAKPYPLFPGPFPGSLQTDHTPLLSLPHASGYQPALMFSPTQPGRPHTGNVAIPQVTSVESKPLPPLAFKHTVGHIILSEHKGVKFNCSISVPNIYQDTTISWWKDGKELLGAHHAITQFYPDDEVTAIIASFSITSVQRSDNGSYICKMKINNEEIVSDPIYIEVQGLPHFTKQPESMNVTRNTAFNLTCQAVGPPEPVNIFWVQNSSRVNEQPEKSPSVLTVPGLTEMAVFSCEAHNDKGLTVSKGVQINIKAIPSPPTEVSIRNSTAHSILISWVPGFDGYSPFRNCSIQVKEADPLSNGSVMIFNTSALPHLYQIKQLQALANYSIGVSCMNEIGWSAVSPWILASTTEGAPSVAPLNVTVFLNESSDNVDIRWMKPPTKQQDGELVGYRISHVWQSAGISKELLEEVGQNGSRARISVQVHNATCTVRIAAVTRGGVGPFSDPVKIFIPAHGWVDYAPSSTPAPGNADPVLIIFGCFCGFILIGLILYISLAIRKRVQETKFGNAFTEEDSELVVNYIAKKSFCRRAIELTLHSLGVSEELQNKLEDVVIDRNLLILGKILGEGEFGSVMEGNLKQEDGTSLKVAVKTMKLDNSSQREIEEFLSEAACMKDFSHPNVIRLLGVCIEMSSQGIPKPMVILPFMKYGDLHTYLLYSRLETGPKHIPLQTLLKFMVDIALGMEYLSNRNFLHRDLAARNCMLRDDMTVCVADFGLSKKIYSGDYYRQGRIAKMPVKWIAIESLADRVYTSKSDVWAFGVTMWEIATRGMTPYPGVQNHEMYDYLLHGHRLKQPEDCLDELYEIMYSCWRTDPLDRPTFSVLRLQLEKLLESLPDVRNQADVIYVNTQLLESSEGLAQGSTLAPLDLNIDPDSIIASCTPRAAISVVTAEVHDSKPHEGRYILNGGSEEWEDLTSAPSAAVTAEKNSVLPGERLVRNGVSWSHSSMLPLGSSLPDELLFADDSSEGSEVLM

Row | Structure (SMILES) | pIC50 [1] | pIC50 [2] | pIC50 [3] | pIC50 [4]
1 | CCc1cc2nccc(Oc3ccc(NC(=O)c4cnc(C)c(-c5ccc(F)cc5C)c4O)cc3F)c2nc1OC [Compound 421, N-[4-[(7-ethyl-6-methoxy-1,5-naphthyridin-4-yl)oxy]-3-fluorophenyl]-5-(4-fluoro-2-methylphenyl)-4-hydroxy-6-methylpyridine-3-carboxamide] | > 7.00 | < 6.52 | 6.52 to 7.00 | > 7.00
2 | C=Cc1cc2nccc(Oc3ccc(NC(=O)c4cnc(C)c(-c5ccc(F)cc5)c4O)cc3F)c2nc1OC [Compound 422, N-[4-[(7-ethenyl-6-methoxy-1,5-naphthyridin-4-yl)oxy]-3-fluorophenyl]-5-(4-fluorophenyl)-4-hydroxy-6-methylpyridine-3-carboxamide] | > 7.00 | > 7.00 | > 7.00 | > 7.00
3 | C=Cc1cc2nccc(Oc3ccc(NC(=O)c4cnc(C)c(-c5ccc(F)cc5C)c4O)cc3F)c2nc1OC [Compound 423, N-[4-[(7-ethenyl-6-methoxy-1,5-naphthyridin-4-yl)oxy]-3-fluorophenyl]-5-(4-fluoro-2-methylphenyl)-4-hydroxy-6-methylpyridine-3-carboxamide] | > 7.00 | < 6.52 | 6.52 to 7.00 | > 7.00
4 | COc1cc2nccc(Oc3ccc(NC(=O)c4cnc(C)c(-c5ccc(F)cc5)c4O)cc3F)c2nc1OCCCN1CCOCC1 [Compound 424, N-[3-fluoro-4-[[7-methoxy-6-(3-morpholin-4-ylpropoxy)-1,5-naphthyridin-4-yl]oxy]phenyl]-5-(4-fluorophenyl)-4-hydroxy-6-methylpyridine-3-carboxamide] | > 7.00 | > 7.00 | > 7.00 | > 7.00
5 | COc1cc2nccc(Oc3ccc(NC(=O)c4cnc(C)c(-c5ccc(F)cc5C)c4O)cc3F)c2nc1OCCCN1CCOCC1 [Compound 425, N-[3-fluoro-4-[[7-methoxy-6-(3-morpholin-4-ylpropoxy)-1,5-naphthyridin-4-yl]oxy]phenyl]-5-(4-fluoro-2-methylphenyl)-4-hydroxy-6-methylpyridine-3-carboxamide] | > 7.00 | > 7.00 | > 7.00 | > 7.00
6 | Cc1cc2nccc(Oc3ccc(NC(=O)c4cnc(C)c(-c5ccc(F)cc5)c4O)cc3F)c2nc1F [Compound 426, N-[3-fluoro-4-[(6-fluoro-7-methyl-1,5-naphthyridin-4-yl)oxy]phenyl]-5-(4-fluorophenyl)-4-hydroxy-6-methylpyridine-3-carboxamide] | > 7.00 | 6.52 to 7.00 | > 7.00 | > 7.00
7 | Cc1cc(F)ccc1-c1c(C)ncc(C(=O)Nc2ccc(Oc3ccnc4cc(C)c(F)nc34)c(F)c2)c1O [Compound 427, N-[3-fluoro-4-[(6-fluoro-7-methyl-1,5-naphthyridin-4-yl)oxy]phenyl]-5-(4-fluoro-2-methylphenyl)-4-hydroxy-6-methylpyridine-3-carboxamide] | > 7.00 | < 6.52 | 6.52 to 7.00 | > 7.00
8 | Cc1cc(F)ccc1-c1c(C)nc(C)c(C(=O)Nc2ccc(Oc3ccnc4cc(C)c(F)nc34)c(F)c2)c1O [Compound 428, N-[3-fluoro-4-[(6-fluoro-7-methyl-1,5-naphthyridin-4-yl)oxy]phenyl]-5-(4-fluoro-2-methylphenyl)-4-hydroxy-2,6-dimethylpyridine-3-carboxamide] | > 7.00 | 6.52 to 7.00 | > 7.00 | > 7.00
9 | Cc1cc(F)ccc1-c1c(C)n(C)cc(C(=O)Nc2ccc(Oc3ccnc4cc(C)c(F)nc34)c(F)c2)c1=O [Compound 429, N-[3-fluoro-4-[(6-fluoro-7-methyl-1,5-naphthyridin-4-yl)oxy]phenyl]-5-(4-fluoro-2-methylphenyl)-1,6-dimethyl-4-oxopyridine-3-carboxamide] | > 7.00 | < 6.52 | > 7.00 | > 7.00
10 | Cc1cc(F)ccc1-c1c(C)nnc(C(=O)Nc2ccc(Oc3ccnc4cc(C)c(F)nc34)c(F)c2)c1O [Compound 430, N-[3-fluoro-4-[(6-fluoro-7-methyl-1,5-naphthyridin-4-yl)oxy]phenyl]-5-(4-fluoro-2-methylphenyl)-4-hydroxy-6-methylpyridazine-3-carboxamide] | > 7.00 | < 6.52 | > 7.00 | > 7.00
11 | COc1nc2c(Oc3ccc(NC(=O)c4c(C)nc(C)c(-c5ccc(F)cc5)c4O)cc3F)ccnc2cc1O [Compound 431, N-[3-fluoro-4-[(7-hydroxy-6-methoxy-1,5-naphthyridin-4-yl)oxy]phenyl]-5-(4-fluorophenyl)-4-hydroxy-2,6-dimethylpyridine-3-carboxamide] | > 7.00 | > 7.00 | > 7.00 | > 7.00
12 | COCCOc1cc2nccc(Oc3ccc(NC(=O)c4c(C)nc(C)c(-c5ccc(F)cc5)c4O)cc3F)c2nc1OC [Compound 432, N-[3-fluoro-4-[[6-methoxy-7-(2-methoxyethoxy)-1,5-naphthyridin-4-yl]oxy]phenyl]-5-(4-fluorophenyl)-4-hydroxy-2,6-dimethylpyridine-3-carboxamide] | > 7.00 | > 7.00 | > 7.00 | > 7.00
13 | COc1cc2nccc(Oc3ccc(NC(=O)c4cn(C5CC5)c(C)c(-c5ccc(F)cc5)c4=O)cc3F)c2nc1OC [Compound 433, 1-cyclopropyl-N-[4-[(6,7-dimethoxy-1,5-naphthyridin-4-yl)oxy]-3-fluorophenyl]-5-(4-fluorophenyl)-6-methyl-4-oxopyridine-3-carboxamide] | > 7.00 | < 6.52 | > 7.00 | > 7.00
14 | COc1cc2nccc(Oc3ccc(NC(=O)c4cn(C5CC5)c(C)c(-c5ccc(F)cc5)c4=O)cc3)c2nc1OC [Compound 434, 1-cyclopropyl-N-[4-[(6,7-dimethoxy-1,5-naphthyridin-4-yl)oxy]phenyl]-5-(4-fluorophenyl)-6-methyl-4-oxopyridine-3-carboxamide] | > 7.00 | < 6.52 | > 7.00 | > 7.00

Second part, the compound after the results:

Row | pIC50 [1] | pIC50 [2] | pIC50 [3] | pIC50 [4] | Structure (SMILES)
15 | > 7.00 | < 6.52 | > 7.00 | > 7.00 | COc1ccc2nccc(Oc3ccc(NC(=O)c4cn(C5CC5)c(C)c(-c5ccc(F)cc5)c4=O)cc3F)c2n1 [Compound 435, 1-cyclopropyl-N-[3-fluoro-4-[(6-methoxy-1,5-naphthyridin-4-yl)oxy]phenyl]-5-(4-fluorophenyl)-6-methyl-4-oxopyridine-3-carboxamide]
16 | > 7.00 | 6.52 to 7.00 | > 7.00 | > 7.00 | COCCOc1nc2c(Oc3ccc(NC(=O)c4cnc(C)c(-c5ccc(F)cc5)c4O)cc3F)ccnc2cc1C [Compound 436, N-[3-fluoro-4-[[6-(2-methoxyethoxy)-7-methyl-1,5-naphthyridin-4-yl]oxy]phenyl]-5-(4-fluorophenyl)-4-hydroxy-6-methylpyridine-3-carboxamide]
17 | > 7.00 | > 7.00 | > 7.00 | > 7.00 | COCCOc1nc2c(Oc3ccc(NC(=O)c4cnc(C)c(-c5ccc(F)cc5)c4O)cc3)ccnc2cc1C [Compound 437, 5-(4-fluorophenyl)-4-hydroxy-N-[4-[[6-(2-methoxyethoxy)-7-methyl-1,5-naphthyridin-4-yl]oxy]phenyl]-6-methylpyridine-3-carboxamide]
18 | > 7.00 | > 7.00 | > 7.00 | > 7.00 | Cc1cc2nccc(Oc3ccc(NC(=O)c4cnc(C)c(-c5ccc(F)cc5)c4O)cc3F)c2nc1OCCCN1CCOCC1 [Compound 438, N-[3-fluoro-4-[[7-methyl-6-(3-morpholin-4-ylpropoxy)-1,5-naphthyridin-4-yl]oxy]phenyl]-5-(4-fluorophenyl)-4-hydroxy-6-methylpyridine-3-carboxamide]
19 | > 7.00 | < 6.52 | 6.52 to 7.00 | > 7.00 | COc1cc2nccc(Oc3ccc(NC(=O)c4cn(C5CC5)c(C)c(-c5ccc(F)cc5C)c4=O)cc3F)c2nc1OC [Compound 439, 1-cyclopropyl-N-[4-[(6,7-dimethoxy-1,5-naphthyridin-4-yl)oxy]-3-fluorophenyl]-5-(4-fluoro-2-methylphenyl)-6-methyl-4-oxopyridine-3-carboxamide]
20 | > 7.00 | < 6.52 | > 7.00 | > 7.00 | COc1cc2nccc(Oc3ccc(NC(=O)c4cn(C5CC5)c(C)c(-c5ccc(F)cc5C)c4=O)cc3)c2nc1OC [Compound 440, 1-cyclopropyl-N-[4-[(6,7-dimethoxy-1,5-naphthyridin-4-yl)oxy]phenyl]-5-(4-fluoro-2-methylphenyl)-6-methyl-4-oxopyridine-3-carboxamide]
